Experiment [1] relates to breast cancer cell lines. The settings on record: not normal breast epithelium; cited from earlier work.
For experiment [2], the system named is Oral squamous carcinoma cells (OSCCs). The experiment can be described thus: Viable cell count (Trypan Blue) after treatment. The experiment is classed as cell-based, human. The protocol: (§1) Oral squamous carcinoma cells (OSCCs) and oral squamous carcinoma stem cells (OSCSCs) were isolated from cancer patients with tongue tumors at UCLA. The cells were cultured in RPMI 1640 complete medium with 10% fetal bovine serum (FBS) 1.4% Antibiotic-Antimycotic, 1% sodium pyruvate, 1.4% non-essential amino acids, 1% L-glutamine, 0.2% gentamicin (Gemini Bio-Products, CA, USA), and 0.15% sodium bicarbonate (Fisher Scientific, PA, USA).
(§2) As shown in FIG. 1A-1E, OSCSCs are affected more by WIN 55,212-2 than OSCCs. Both OSCCs (oral squamous carcinoma cells) and OSCSCs (oral squamous carcinoma stem cells) were treated with various concentrations of WIN 55,212-2 (10, 25, 50, and 100 μM) and CDDP (50 μg/ml), and the cell numbers were determined after 24 hours of treatment.
(§3) RPMI 1640 (Gibco, Thermo Fisher Scientific, USA) complete medium with 10% fetal bovine serum (FBS) (Gemini Bio-Products, San Diego, Calif., USA), 1.4% of non-essential amino acid (Gibco, Thermo Fisher Scientific, USA), 1.4% sodium pyruvate (Gibco, Thermo Fisher Scientific, USA), 0,15% of sodium bicarbonate (Fisher Scientific, Waltham, Mass., USA) and 1% antibiotics/antimycotics (Gemini Bio-Products, San Diego, Calif., USA) was used for oral tumor culture. DMEM (Gibco, Thermo Fisher Scientific, USA) supplemented with 10% FBS and 1% antibiotics/antimycotics was used for pancreatic tumor cell culture. Oral squamous carcinoma cells (OSCCs) and oral squamous carcinoma stem cells (OSCSCs) were isolated from cancer patients with tongue tumor at UCLA. Human pancreatic cancer cell lines MIA PaCa-2 (MP2) and PL-12 were generously provided by Dr. Guido Eibl (UCLA David Geffen School of Medicine) and by Dr. Nicholas Cacalano (UCLA Jonsson Comprehensive Cancer Center), respectively. […] CDDP was purchased from Ronald Reagan UCLA Medical Center Pharmacy. […] TNF-α and IFN-γ were purchased from Peprotech (Rockyhill, N.J.).
(§4) The number of viable cells was counted under light microscope using Trypan Blue staining (Sigma, Mo., USA).

The subject of experiment [3] is oral squamous carcinoma stem cells (OSCSCs). In words: Viable cell count (Trypan Blue) after treatment. It is filed as cell-based, human. The conditions noted are these: WIN 55,212-2 10, 25, 50, 100 μM; CDDP 50 μg/ml; 24 hours. The protocol: as §1, §2, §3, §4
For experiment [4], the system named is PL-12 well-differentiated pancreatic tumor cells. In words: Viable cell count (Trypan Blue) after treatment. The settings on record: various concentrations of WIN 55,212-2; CDDP 50 μg/ml. It is filed as cell-based, human.
Source text: Six different pancreatic tumor cell lines each characterized at poorly, intermediate and well differentiated stages pathologically by other laboratories previously were used to determine phenotype, susceptibility to NK cell-mediated cytotoxicity and secretion of IFN-γ directly correlating with the differentiation stages of the tumors. […] Furthermore, the stage of differentiation of the tumors was correlated with sensitivity to NK cell mediated cytotoxicity in pancreatic tumor cells. […] Therefore, a direct correlation between augmented sensitivity to NK-mediated lysis and poor differentiation of pancreatic tumors was evident from these experiments. For the following experiments MP2 and PL12 were used as representative tumor types for poorly differentiated and well differentiated tumors respectively. Human pancreatic cancer cell line MIA PaCa-2 (MP2), was provided by Dr. Guido Eibl (UCLA David Geffen School of Medicine) and PL12 was provided by Dr. Nicholas Cacalano (UCLA Jonsson Comprehensive Cancer Center). MP2 tumors were cultured with DMEM in supplement with 10% FBS and 1% Penicillin-Streptomycin (Gemini Bio-Products, CA). PL12 pancreatic tumors were cultured in RMPI 1640 medium supplemented with 10% FBS and 1% penicillin-streptomycin.
as §3, §4

The test system of experiment [5] is Oral squamous carcinoma cells (OSCCs). The experiment can be described thus: Cell death by propidium iodide staining and flow cytometry. The experiment is classed as cell-based, human. The conditions noted are these: CDDP 50 μg/mL, 24 hours. The protocol: After an overnight incubation the cells were washed twice and stained with propidium iodide (PI) at a concentration of 3 μg/ml. Flow cytometric analysis was performed using Attune flow cytometer results were analyzed using FlowJo vX software (Ashland, Oreg.).
On the technique in general: In flow cytometry, cells or beads pass a laser one at a time.

The subject of experiment [6] is PL-12 well-differentiated pancreatic tumor cells. The experiment is described as above. It is filed as cell-based, human. The conditions noted are these: CDDP 50 μg/mL. An excerpt: Propidium iodide (PI) staining was used to determine the cell death by flow cytometry.
Experiment [7] has as its system Oral squamous carcinoma cells (OSCCs). In words: Microscopy of cell morphology and viability. The conditions noted are these: WIN 55,212-2 50 μM or higher; CDDP 50 μg/mL; 24 h. The experiment is classed as cell-based, human.
Experiment [8] relates to oral squamous carcinoma stem cells (OSCSCs). The experiment can be described thus: Microscopy of cell morphology and viability. It is filed as cell-based, human. The conditions noted are these: WIN 55,212-2 even at the lowest concentrations; CDDP 50 μg/mL; 24 h.
The test system of experiment [9] is PL-12 well-differentiated pancreatic tumor cells. The experiment can be described thus: Microscopy of cell morphology and viability. It is filed as cell-based, human. The conditions noted are these: different concentrations of WIN 55,212-2; CDDP 50 μg/mL; 24 hours.
Experiment [10] deals with MIA PaCa-2 (MP2) poorly differentiated/stem like pancreatic tumor cells. In words: Microscopy of cell morphology and viability. It is filed as cell-based, human. The settings on record: different concentrations of WIN 55,212-2; CDDP 50 μg/mL; 24 hours.

Molecules are shown by their SMILES. “Also recorded” adds a separate entry of the source.

For `C=C(C)[C@@H]1CCC(C)=C[C@H]1c1c(O)cc(CCCCC)cc1O` [CBD, Cannabidiol], in experiment [1], the “effect on radiotherapy / anti-proliferative effects of radiation” value is listed as “failed to enhance anti-proliferative effects of radiation”.
On to `N.N.[Cl][Pt][Cl]` [CDDP, cis-diaminedichloridoplatinum (II)], for which, in experiment [2] (CDDP 50 μg/mL, 24 h), the “inhibition of cell growth, OSCCs compared with OSCSCs” value is listed as “inhibit cell growth of OSCCs more than those seen with OSCSCs”. Moreover, in experiment [2] (WIN 55,212-2 10, 25, 50, 100 μM, CDDP 50 μg/ml, 24 hours), the “killing / decrease in cell numbers of OSCCs, in words” value is “killed significantly; also recorded: greater decreases in cell numbers”. The “killing / decrease in cell numbers of OSCSCs, in words” value in [3] is “not killed”. Also, the “percent decrease in cell numbers of PL12, in words” value in experiment [4] is given as “greater decrease in cell numbers”. For the same molecule, the “cell death in OSCCs compared with OSCSCs (PI staining)” value in experiment [5] is “significant cell death in OSCCs when compared to OSCSCs; also recorded: more cell death in OSCCs when compared to OSCSCs”. In addition, the “cell death in PL-12 compared with MP2 (PI staining)” value in [6] was “higher in PL-12 in the representative experiment (FIG. 16B) and similar in compiled data”. Besides, in experiment [7], the “morphology/viability of OSCCs under the microscope” value was “loss of morphology, and the majority were detached from the plates”. Besides, the “morphology/attachment of OSCSCs under the microscope” value in experiment [8] is listed as “the majority of these cells were still attached to the cell culture plate”. For the same molecule, the “morphology/viability of PL-12 under the microscope” value in experiment [9] is “affected both PL-12 and MP2 morphologically”. Also, the “morphology/viability of MP2 under the microscope” value in [10] was “affected both PL-12 and MP2 morphologically”.
Consider `CCCCCc1cc(O)c2c(c1)OC(C)(C)[C@@H]1CCC(C)=C[C@@H]21` [THC, Tetrahydrocannabinol], for which the “effect on radiotherapy / anti-proliferative effects of radiation” value in [1] is given as “failed to enhance anti-proliferative effects of radiation”.
Consider `CCCCCCC(C)(C)c1cc(O)c2c(c1)OC(C)(C)C1CCC(=O)CC21` (stereo not shown) [nabilone], for which the “effect on radiotherapy / anti-proliferative effects of radiation” value in [1] was “failed to enhance anti-proliferative effects of radiation”.

The values are drawn from patent US20220331286A1, “CANNABIS LIMITS CANCER STEM CELL GROWTH IN POORLY DIFF[…]” (The Regents of the University of California, priority 2021, published 2022).
